Measurements reported in patent publication US20240018153A1, “BENZENESULFONAMIDE DERIVATIVES AND USES THEREOF” (2692372 ONTARIO, INC., priority 2020, published 2024).

Key:
EGFR = EGFR (Homo sapiens (Human), UniProt P00533); assay: HTRF KinEASE-TK kinase assay, EGFR; type: biochemical; conditions: 3 h preincubation; for remaining activity at 1 µM: 1 μM compound, read-out: % EGFR Remaining activity vs DMSO (1 μM, 3 h); for remaining activity at 10 µM: 10 μM compound, read-out: % EGFR Remaining activity vs DMSO (10 μM, 3 h)
Description: Kinase activity was monitored using a HTRF® KinEASE-TK kit from Cisbio (62TK0PEC). The buffer used was 1× kinase buffer supplemented with 2 mM MnCl2, 5 mM MgCl2, 1 mM TCEP and 100× diluted Supplementary Enzyme Buffer. EGFR was purchased from Promega. […] Reaction with substrate was then initiated by adding biotinylated substrate and ATP. […] After 60 min of incubation, the fluorescence emission was measured at 620 nm and 665 nm. The ratio of Em 665 nm to Em 620 nm was proportional to the amount of substrate phosphorylated by the kinase.
For initial screening, enzymes were pre incubated with compounds at 2 different concentrations (1 and 10 uM final) and 0.5% DMSO.

BTK [1] = target: T1, BTK (Homo sapiens (Human), UniProt Q06187); assay: Ramos RA1 cell lysis and immunoassay, phospho-BTK (Y223) inhibition; type: cell-based; set-up: key: X: BTK bound and autophosphoration of BTK inhibited in cells; conditions: RAMOS cells, compound concentration 1 μM
Description: Ramos RA 1 cells (ATCC) were cultured in RPMI-1640 media (Wisent) supplemented with 10% heat-inactivated FBS and 1% penicillin/streptomycin. Cells were seeded in 6-well plates at 1.71×10^6 cells/well and incubated at 37° C., 5% CO2 for 16 hours. Cells were treated with compound at the indicated concentrations or DMSO alone and incubated at 37° C., 5% CO2 for 24 hours. Cell suspensions were centrifugated at 1,400-1,600 RPM for 5 minutes at room temperature and supernatants were discarded. Cell pellets were resuspended with 1× RIPA buffer (Millipore) and incubated on ice for 15 minutes. Protein lysates were extracted by centrifugating at 20,000 RPM for 20 minutes at 4° C. Proteins were separated and total BTK protein levels were quantified by Simple Western Immunoassay (ProteinSimple) using the 12-230 kDa Jess Separation Module according to the manufacturer's protocol, using a protein concentration of 0.25 μg/μl and antibodies targeting BTK (clone #D3H5, Cell Signalling) and β-Actin (clone #AC-15, Santa Cruz) diluted to 1:400 and 1:10, respectively, where the latter was used as a loading control. An equal ratio of rabbit and mouse HRP-conjugated secondary antibodies was used for detection. BTK protein levels were quantified relative to S-Actin loading levels and subsequently normalized to the DMSO control. Phosphorylated BTK levels were quantified using the Protein Normalization Assay Module for Jess (ProteinSimple) according to the manufacturer's protocol, using a protein concentration of 1.5 μg/μl and an antibody targeting pBTK (Y223) (Cell Signalling) diluted to 1:50. Phosphorylated BTK levels were quantified relative to the Protein Normalization Reagent and subsequently normalized to the DMSO control.

FGFR4 = FGFR4 (Homo sapiens (Human), UniProt P22455); assay: HTRF KinEASE-TK kinase assay, FGFR4; type: biochemical; conditions: for remaining activity at 1 µM: read-out: % FGFR4 Remaining activity vs DMSO (1 μM, 3 h); for remaining activity at 10 µM: read-out: % FGFR4 Remaining activity vs DMSO (10 μM, 3 h)
Description: (§1) Kinase activity was monitored using a HTRF® KinEASE-TK kit from Cisbio (62TK0PEC). […] FGFR-4 was purchased from Promega. 0.333 ng/ul FGFR4 (5.12 nM) was preincubated in the absence or presence of inhibitor at room temperature for 3 hours. Reaction with substrate was then initiated by adding biotinylated substrate and ATP. […] The reaction was terminated by adding 31.25 nM SA-XL665 and 100 fold diluted europium labelled antibody (Eu-Ab), diluted in 1× detection buffer that contained EDTA. After 60 min of incubation, the fluorescence emission was measured at 620 nm and 665 nm. The ratio of Em 665 nm to Em 620 nm was proportional to the amount of substrate phosphorylated by the kinase.

BMX = BMX (Homo sapiens (Human), UniProt P51813); assay: HTRF KinEASE-TK kinase assay, BMX; type: biochemical; conditions: for remaining activity at 1 µM: 1 uM compound; for remaining activity at 1 µM / remaining activity at 10 µM: 3 h preincubation; for remaining activity at 10 µM: 10 uM compound
Description: as §1, with “BMX” for “FGFR-4”, “BMX (3.03” for “FGFR4 (5.12”, “The reaction” for “Reaction”, “Reaction” for “The reaction”

JAK3 = JAK3 (Homo sapiens (Human), UniProt P52333); assay: HTRF KinEASE-TK kinase assay, JAK3; type: biochemical; conditions: for remaining activity at 1 µM: read-out: % JAK3 Remaining activity vs DMSO (1 μM, 3 h); for remaining activity at 10 µM: read-out: % JAK3 Remaining activity vs DMSO (10 μM, 3 h)
Description: as §1, with “JAK-3” for “FGFR-4”, “0.0133” for “0.333”, “JAK3 (0.21” for “FGFR4 (5.12”

BTK [2] = target: T1, BTK; assay: HTRF KinEASE-TK kinase assay, BTK; type: biochemical; conditions: 3 h preincubation; for remaining activity at 1 µM: 1 μM compound, read-out: % BTK Remaining activity vs DMSO (1 μM, 3 h); for remaining activity at 10 µM: 10 μM compound, read-out: % BTK Remaining activity vs DMSO (10 μM, 3 h)
Description: Kinase activity was monitored using a HTRF® KinEASE-TK kit from Cisbio (62TK0PEC). For BTK, the 1× kinase buffer was supplemented with 10 mM MnCl2, 5 mM MgCl2, 1 uM ATPγS, 1 mM TCEP and 100 fold diluted Supplementary Enzyme Buffer. BTK was purchased from Promega. […] Reaction with substrate was then initiated by adding biotinylated substrate and ATP and the reaction was allowed to proceed for 45 min. […] After 60 min of incubation, the fluorescence emission was measured at 620 nm and 665 nm. The ratio of Em 665 nm to Em 620 nm was proportional to the amount of substrate phosphorylated by the kinase.

RIPK2 = RIPK2 (Homo sapiens (Human), UniProt O43353); assay: In vitro RIPK2 inhibition; type: biochemical; conditions: for remaining activity at 1 µM: read-out: % RIPK2 Remaining activity vs DMSO (1 μM, 3 h); for remaining activity at 10 µM: read-out: % RIPK2 Remaining activity vs DMSO (10 μM, 3 h)
RIPK2, sequence (O43353 whole entry, species assumed): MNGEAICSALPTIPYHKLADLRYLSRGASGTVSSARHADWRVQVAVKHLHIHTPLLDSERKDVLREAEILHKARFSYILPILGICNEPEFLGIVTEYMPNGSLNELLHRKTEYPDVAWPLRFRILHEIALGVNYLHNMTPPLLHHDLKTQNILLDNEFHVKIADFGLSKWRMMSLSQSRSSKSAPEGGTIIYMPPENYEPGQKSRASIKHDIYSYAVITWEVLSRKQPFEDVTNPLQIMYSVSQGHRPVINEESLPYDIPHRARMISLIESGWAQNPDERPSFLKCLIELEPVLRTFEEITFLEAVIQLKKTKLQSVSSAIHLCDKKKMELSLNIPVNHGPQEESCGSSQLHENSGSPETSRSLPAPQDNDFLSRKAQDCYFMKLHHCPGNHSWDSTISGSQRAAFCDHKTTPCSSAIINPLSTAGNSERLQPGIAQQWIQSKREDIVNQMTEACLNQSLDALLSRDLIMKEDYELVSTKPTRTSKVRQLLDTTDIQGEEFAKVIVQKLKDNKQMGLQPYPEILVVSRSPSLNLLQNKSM

FGFR4, sequence (P22455 22-802): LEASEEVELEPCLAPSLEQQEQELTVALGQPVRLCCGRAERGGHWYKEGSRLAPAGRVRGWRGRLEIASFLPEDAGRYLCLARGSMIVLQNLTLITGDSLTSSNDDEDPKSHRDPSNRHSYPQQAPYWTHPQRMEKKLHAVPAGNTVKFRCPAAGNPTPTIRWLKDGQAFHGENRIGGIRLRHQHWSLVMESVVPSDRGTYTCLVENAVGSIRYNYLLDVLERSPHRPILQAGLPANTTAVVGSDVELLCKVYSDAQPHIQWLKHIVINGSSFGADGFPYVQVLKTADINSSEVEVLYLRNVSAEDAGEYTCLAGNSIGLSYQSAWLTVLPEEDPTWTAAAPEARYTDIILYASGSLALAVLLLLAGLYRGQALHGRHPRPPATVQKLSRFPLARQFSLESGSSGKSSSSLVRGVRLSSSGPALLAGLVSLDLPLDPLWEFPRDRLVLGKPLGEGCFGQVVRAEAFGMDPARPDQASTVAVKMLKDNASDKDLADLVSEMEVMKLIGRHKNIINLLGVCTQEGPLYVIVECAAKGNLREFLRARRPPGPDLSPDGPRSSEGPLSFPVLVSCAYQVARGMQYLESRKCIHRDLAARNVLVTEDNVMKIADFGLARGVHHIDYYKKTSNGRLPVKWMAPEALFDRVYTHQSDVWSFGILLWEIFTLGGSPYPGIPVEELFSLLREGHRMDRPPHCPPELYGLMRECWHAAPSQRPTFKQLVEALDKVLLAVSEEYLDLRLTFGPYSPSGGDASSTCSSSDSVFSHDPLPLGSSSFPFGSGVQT
JAK3, sequence (P52333 781-1124): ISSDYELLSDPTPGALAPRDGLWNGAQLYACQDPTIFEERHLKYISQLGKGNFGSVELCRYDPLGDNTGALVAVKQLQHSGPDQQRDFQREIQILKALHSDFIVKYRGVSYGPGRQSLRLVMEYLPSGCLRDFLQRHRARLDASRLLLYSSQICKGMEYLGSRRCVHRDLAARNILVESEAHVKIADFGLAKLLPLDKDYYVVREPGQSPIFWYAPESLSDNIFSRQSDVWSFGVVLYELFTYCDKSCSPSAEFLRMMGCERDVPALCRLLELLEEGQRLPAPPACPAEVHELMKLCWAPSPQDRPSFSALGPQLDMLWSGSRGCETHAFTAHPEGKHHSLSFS
BMX, sequence (P51813 whole entry): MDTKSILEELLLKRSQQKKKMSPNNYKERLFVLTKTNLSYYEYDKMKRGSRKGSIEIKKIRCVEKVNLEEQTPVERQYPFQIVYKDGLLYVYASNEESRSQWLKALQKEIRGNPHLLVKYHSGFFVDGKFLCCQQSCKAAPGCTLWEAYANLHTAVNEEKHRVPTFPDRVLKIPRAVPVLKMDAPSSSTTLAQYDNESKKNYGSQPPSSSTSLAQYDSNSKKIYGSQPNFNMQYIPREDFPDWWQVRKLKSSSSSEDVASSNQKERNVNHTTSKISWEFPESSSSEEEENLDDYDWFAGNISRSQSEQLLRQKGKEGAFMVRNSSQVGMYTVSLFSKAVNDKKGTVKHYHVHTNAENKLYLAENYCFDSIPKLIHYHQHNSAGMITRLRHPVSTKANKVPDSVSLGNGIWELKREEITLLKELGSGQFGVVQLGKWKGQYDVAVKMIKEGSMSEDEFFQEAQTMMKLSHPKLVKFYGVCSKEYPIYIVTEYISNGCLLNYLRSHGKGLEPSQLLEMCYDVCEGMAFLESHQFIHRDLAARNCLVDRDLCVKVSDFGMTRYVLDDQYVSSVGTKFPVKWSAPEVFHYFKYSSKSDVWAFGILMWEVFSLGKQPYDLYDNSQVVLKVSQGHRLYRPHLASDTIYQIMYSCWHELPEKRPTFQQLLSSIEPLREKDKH
T1 sequence (Q06187 whole entry): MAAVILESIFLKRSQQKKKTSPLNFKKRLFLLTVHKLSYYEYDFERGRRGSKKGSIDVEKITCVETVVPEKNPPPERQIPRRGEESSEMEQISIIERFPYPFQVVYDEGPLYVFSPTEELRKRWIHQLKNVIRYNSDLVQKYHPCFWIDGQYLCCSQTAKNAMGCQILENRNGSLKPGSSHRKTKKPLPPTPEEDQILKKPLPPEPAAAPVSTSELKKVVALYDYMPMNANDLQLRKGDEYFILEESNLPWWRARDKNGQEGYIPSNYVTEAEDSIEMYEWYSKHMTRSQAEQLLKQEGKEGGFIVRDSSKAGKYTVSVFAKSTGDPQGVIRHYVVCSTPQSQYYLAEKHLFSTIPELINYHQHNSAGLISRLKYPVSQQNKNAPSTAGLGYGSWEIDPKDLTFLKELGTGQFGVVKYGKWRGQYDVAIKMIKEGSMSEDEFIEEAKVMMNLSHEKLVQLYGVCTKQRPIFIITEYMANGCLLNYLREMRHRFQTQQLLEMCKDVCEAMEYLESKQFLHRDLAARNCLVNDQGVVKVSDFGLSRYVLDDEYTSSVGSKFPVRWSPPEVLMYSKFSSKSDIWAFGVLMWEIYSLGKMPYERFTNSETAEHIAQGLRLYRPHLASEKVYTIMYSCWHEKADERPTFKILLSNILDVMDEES
EGFR, sequence (P00533 25-1210): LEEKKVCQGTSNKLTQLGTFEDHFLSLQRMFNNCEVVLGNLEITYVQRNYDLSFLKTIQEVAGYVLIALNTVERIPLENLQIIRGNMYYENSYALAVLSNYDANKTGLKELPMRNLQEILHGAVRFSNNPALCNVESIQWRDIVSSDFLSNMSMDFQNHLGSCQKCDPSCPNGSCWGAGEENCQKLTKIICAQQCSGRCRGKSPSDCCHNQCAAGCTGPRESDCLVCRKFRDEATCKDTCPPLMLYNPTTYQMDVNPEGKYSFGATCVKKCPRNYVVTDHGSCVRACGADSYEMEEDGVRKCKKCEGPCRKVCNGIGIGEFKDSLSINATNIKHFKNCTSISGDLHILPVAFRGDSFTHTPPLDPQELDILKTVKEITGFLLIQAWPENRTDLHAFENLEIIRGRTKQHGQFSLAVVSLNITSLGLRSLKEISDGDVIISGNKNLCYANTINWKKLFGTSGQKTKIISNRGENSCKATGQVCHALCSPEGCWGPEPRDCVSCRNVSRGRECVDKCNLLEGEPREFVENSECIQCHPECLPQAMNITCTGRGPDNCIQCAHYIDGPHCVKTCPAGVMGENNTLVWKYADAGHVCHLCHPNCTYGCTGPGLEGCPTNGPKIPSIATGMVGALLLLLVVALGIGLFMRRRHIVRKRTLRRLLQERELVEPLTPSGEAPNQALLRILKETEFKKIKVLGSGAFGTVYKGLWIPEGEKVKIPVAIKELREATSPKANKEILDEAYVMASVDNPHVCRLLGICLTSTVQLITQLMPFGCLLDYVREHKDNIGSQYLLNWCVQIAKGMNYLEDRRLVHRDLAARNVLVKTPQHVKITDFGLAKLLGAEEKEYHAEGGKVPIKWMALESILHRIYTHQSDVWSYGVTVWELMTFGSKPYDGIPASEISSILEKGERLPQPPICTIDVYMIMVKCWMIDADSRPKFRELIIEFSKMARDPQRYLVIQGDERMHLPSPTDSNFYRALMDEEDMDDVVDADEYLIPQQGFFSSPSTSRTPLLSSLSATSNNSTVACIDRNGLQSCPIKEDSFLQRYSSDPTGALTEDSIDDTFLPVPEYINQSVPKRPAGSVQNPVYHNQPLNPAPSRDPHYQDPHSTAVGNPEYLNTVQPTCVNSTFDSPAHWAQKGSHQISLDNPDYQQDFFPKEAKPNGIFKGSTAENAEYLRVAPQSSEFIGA

remaining activity at 1 µM (EGFR) | remaining activity at 10 µM (EGFR) | pBTK inhibition (RAMOS, 24 h) (BTK [1]) | remaining activity at 1 µM (FGFR4) | remaining activity at 10 µM (FGFR4) | remaining activity at 1 µM (BMX) | remaining activity at 10 µM (BMX) | remaining activity at 1 µM (JAK3) | remaining activity at 10 µM (JAK3) | remaining activity at 1 µM (BTK [2]) | remaining activity at 10 µM (BTK [2]) | IC50 (BMX; dose response) | IC50 (EGFR; dose response, read-out: EGFR Inhibition IC50) | IC50 (JAK3; dose response) | remaining activity at 1 µM (RIPK2) | remaining activity at 10 µM (RIPK2) | SMILES
> 90% | < 50% | X | > 90% | < 50% | < 50% | < 50% | > 90% | 50 to 90% | < 50% | < 50% |  |  |  |  |  | Nc1ncnc2c1c(-c1ccc(Oc3ccccc3)cc1)nn2CCNS(=O)(=O)c1c(F)c(F)c(F)c(F)c1C(F)F [Compound I-22, N-(2-(4-amino-3-(4-phenoxyphenyl)-1H-pyrazolo[3,4-d]pyrimidin-1-yl)ethyl)-2-(difluoromethyl)-3,4,5,6-tetrafluorobenzenesulfonamide]
 |  | X | > 90% | > 90% | < 50% | < 50% | > 90% | 50 to 90% | < 50% | < 50% |  |  |  |  |  | COc1c(F)c(F)c(F)c(F)c1S(=O)(=O)n1nc(-c2ccc(Oc3ccccc3)cc2)c2c(N)ncnc21 [Compound I-23, 3-(4-phenoxyphenyl)-1-((2,3,4,5-tetrafluoro-6-methoxyphenyl)sulfonyl)-1H-pyrazolo[3,4-d]pyrimidin-4-amine]
> 90% | > 90% | X | 50 to 90% | < 50% | < 50% | < 50% | > 90% | 50 to 90% | < 50% | < 50% | < 1 µM |  |  |  |  | Nc1ncnc2c1c(-c1ccc(Oc3ccccc3)cc1)nn2CCNS(=O)(=O)c1c(F)c(F)c(F)c(F)c1OCF [Compound I-25, N-(2-(4-amino-3-(4-phenoxyphenyl)-1H-pyrazolo[3,4-d]pyrimidin-1-yl)ethyl)-2,3,4,5-tetrafluoro-6-(fluoromethoxy)benzenesulfonamide]
< 50% | < 50% |  | 50 to 90% | < 50% | < 50% | < 50% | < 50% | < 50% | < 50% | < 50% |  | < 1 µM | < 1 µM | 50 to 90% | > 90% | CS(=O)(=O)c1c(F)c(F)c(F)c(F)c1C(=O)N1CC(n2nc(-c3ccc(Oc4ccccc4)cc3)c3c(N)ncnc32)C1 [Compound I-27, (3-(4-amino-3-(4-phenoxyphenyl)-1H-pyrazolo[3,4-d]pyrimidin-1-yl)azetidin-1-yl)(2,3,4,5-tetrafluoro-6-(methylsulfonyl)phenyl)methanone]
> 90% | < 50% |  | > 90% | < 50% | < 50% | < 50% | < 50% | < 50% | < 50% | < 50% |  |  |  | < 50% | 50 to 90% | CS(=O)(=O)c1c(F)c(F)c(F)c(F)c1C(=O)NCCNc1ncnc2[nH]ccc12 [Compound I-45, N-(2-((7H-pyrrolo[2,3-d]pyrimidin-4-yl)amino)ethyl)-2,3,4,5-tetrafluoro-6-(methylsulfonyl)benzamide]
